Data published in patent publication US12122779B2, “Pyrrolo-pyridazine derivatives as muscarinic M1 receptor positive allosteric modulators” (SUVEN LIFE SCIENCES LIMITED, priority 2018, dated 2024).

What was measured:
Male Wistar rats [1] = experiment: Object recognition task model; assay type: in vivo; conditions: rat, p.o.; for Exploration time mean ± S.E.M, Familiar object / Exploration time mean ± S.E.M, Novel object: choice trial 24 h after T1
Procedure: Object Recognition Task Model
(§1) Male Wistar rats (8-10 weeks old) were used as experimental animals. Four animals were housed in each cage. Animals were kept on 20% food deprivation from a day prior to experimentation. Water was provided ad libitum throughout the experiment. Animals were maintained on a 12 h light/dark cycle in temperature and humidity controlled room. The experiment was carried out in a circular or square arena made up of acrylic. Rats were habituated to individual arenas for up to 1 hour in the absence of any objects on day 1.
One group of 12 rats received vehicle and another set of animals received test compounds, before familiar (T1) and choice (T2) trials. During the familiarization phase, (T1), the rats were placed individually in the arena for 3 minutes, in which two identical objects (a1 and a2) were positioned 10 cm from the wall. 24 h after T1, trial for long-term memory test was performed. The same rats were placed in the same arena as they were placed in T1 trial. During the choice phase (T2) rats were allowed to explore the arena for 3 minutes in presence of a copy of familiar object (a3) and one novel object (b). During the T1 and T2 trial, explorations of each object (defined as sniffing, licking, chewing or having moving vibrissae whilst directing the nose towards the object at a distance of less than 1 cm) were recorded using stopwatch. • T1 is the total time spent exploring the familiar objects (a1+a2). • T2 is the total time spent exploring the familiar object and novel object (a3+b).
The object recognition test was performed as described in Behav. Brain Res., 1988, 31, 47-59.

Male Wistar rats [2] = experiment: Object recognition task model (combination study with donepezil); assay type: in vivo; conditions: rat, combination of sub efficacious doses with donepezil (FIG. 1)
Procedure: Object Recognition Task Model (Combination Study)
The cognition enhancing properties of compounds of this invention were estimated by using this model.
as §1, with “an open field” for “a circular or square arena”, “arenas (open field)” for “arenas”, “20 minutes” for “up to 1 hour”, “1. […]” for “1.”
The same rats were placed in the same arena as they were placed in T1 trial. […] During the T1 and T2 trial, explorations of each object (defined as sniffing, licking, chewing or having moving vibrissae whilst directing the nose towards the object at a distance of less than 1 cm) were recorded using stopwatch. • T1 is the total time spent exploring the familiar objects (a1+a2). • T2 is the total time spent exploring the familiar object and novel object (a3+b). • Discriminative index=Time spent with novel object/(time spent with novel and familiar object). […]

[3] = Rodent pharmacokinetic study; assay type: in vivo, Male Wistar rats; conditions: male, Wistar, plasma, rat; for bioavailability: oral 3 mg/kg vs intravenous 1 mg/kg, read-out: F (%) Bioavailability
Procedure: Rodent Pharmacokinetic Study
Male Wistar rats (260±50 grams) were used as experimental animals. Animals were housed individually in polypropylene cage. Two days prior to study, male Wistar rats were anesthetized with isoflurane for surgical placement of jugular vein catheter. Rats were randomly divided for oral (3 mg/kg) and intravenous (1 mg/kg) dosing (n=3/group) and fasted overnight before oral dosing (p.o.). However, rats allocated to intravenous dosing food and water was provided ad libitum.
At pre-determined point, blood was collected through jugular vein and replenished with an equivalent volume of normal saline. Collected blood was transferred into a labeled eppendorf tube containing 10 μL of heparin as an anticoagulant. Typically blood samples were collected at following time points: 0.08, 0.25, 0.5, 1, 2, 4, 6, 8, and 24 h post dose. Blood was centrifuged at 4000 rpm for 10 minutes. Plasma was separated and stored frozen at −80° C. until analysis. The concentrations of the test compounds were quantified in plasma by qualified LC-MS/MS method using suitable extraction technique. The test compounds were quantified in the calibration range around 1-1000 ng/mL in plasma. Study samples were analyzed using calibration samples in the batch and quality control samples spread across the batch.
Pharmacokinetic parameters Cmax, AUCt, T1/2, Clearance and Bioavailability (F) were calculated by non-compartmental model using standard non-compartmental model by using Phoenix WinNonlin 6.0.4 version Software package.

[4] = molecular target: T1, recombinant human Muscarinic M1 receptor (Homo sapiens, UniProt P11229); experiment: Allosteric potency EC50 for muscarinic M1 receptor, CHO pCRE-Luc reporter cell-based assay with EC20 of acetylcholine; conditions: CHO cells, luciferase activity, in presence of EC20 of acetylcholine, 4 hours
T1 sequence (P11229 1-460): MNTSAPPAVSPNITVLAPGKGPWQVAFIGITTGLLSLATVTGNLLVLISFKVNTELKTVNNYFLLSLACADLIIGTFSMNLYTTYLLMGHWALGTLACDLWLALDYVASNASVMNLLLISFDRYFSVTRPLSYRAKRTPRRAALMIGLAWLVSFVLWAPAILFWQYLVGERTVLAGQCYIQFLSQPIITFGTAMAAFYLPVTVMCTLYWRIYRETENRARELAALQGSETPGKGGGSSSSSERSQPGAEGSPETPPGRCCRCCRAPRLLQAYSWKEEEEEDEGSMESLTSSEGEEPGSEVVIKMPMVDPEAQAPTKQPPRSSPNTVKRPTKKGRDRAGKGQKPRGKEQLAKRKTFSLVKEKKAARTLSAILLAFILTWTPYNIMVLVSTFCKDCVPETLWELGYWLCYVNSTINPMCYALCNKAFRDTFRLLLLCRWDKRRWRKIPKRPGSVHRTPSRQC
Procedure: Determination of Allosteric Potency EC50 Values for Muscarinic M1 Receptor
A stable CHO cell line expressing recombinant human Muscarinic M1 receptor and pCRE-Luc reporter system was used for cell-based assay. The assay offers a non-radioactive based approach to determine binding of a compound to GPCRs. In this specific assay, the level of intracellular cyclic AMP which is modulated by activation or inhibition of the receptor is measured. The recombinant cells harbor luciferase reporter gene under the control of cyclic AMP response element.
The above cells were grown in 96 well clear bottom white plates in Hams F12 medium containing 10% fetal bovine serum (FBS). Prior to the addition of compounds or standard agonist, cells were serum starved overnight. Increasing concentrations of test compounds were added along with EC20 of acetylcholine in OptiMEM medium to the cells. The incubation was continued at 37° C. in CO2 incubator for 4 hours. Medium was removed and cells were washed with phosphate buffered saline. The cells were lysed and luciferase activity was measured in a Luminometer. Luminescence units were plotted against the compound concentrations using Graphpad software.

[5] = Rodent brain penetration study; assay type: in vivo, Male Wistar rats; conditions: male, Wistar, brain and plasma, po; rat, 3 mg/kg p.o., brain-plasma ratio; read-out: Single dose Rat Brain Penetration (Cb/Cp) at 3 mg/kg, p.o.
Procedure: Rodent Brain Penetration Study
Male Wistar rats (260±40 grams) were used as experimental animals. Three animals were housed in each cage. Animals were given water and food ad libitum throughout the experiment and maintained on a 12 h light/dark cycle.
Brain penetration was determined in discrete manner in rats. One day prior to dosing day, male Wistar rats were acclimatized and randomly grouped according to their weight. At each time point (0.50, 1 and 2 h) n=3 animals were used.
The test compounds were suitably preformulated and administered orally at (free base equivalent) 3 mg/kg. Blood samples were removed via cardiac puncture by using isoflurane anesthesia. The animals were sacrificed to collect brain tissue. Plasma was separated and brain samples were homogenized and stored frozen at −20° C. until analysis. The concentrations of the test compounds in plasma and brain were determined using LC-MS/MS method.
The test compounds were quantified in plasma and brain homogenate by qualified LC-MS/MS method using suitable extraction technique. The test compounds were quantified in the calibration range of 1-500 ng/mL in plasma and brain homogenate. Study samples were analyzed using calibration samples in the batch and quality control samples spread across the batch. Extent of brain-plasma ratio (Cb/Cp) was calculated.

SMILES | Inference (Male Wistar rats [1]; 3 mg/kg) | Exploration time mean ± S.E.M, Familiar object (Male Wistar rats [1]; 3 mg/kg) | Exploration time mean ± S.E.M, Novel object (Male Wistar rats [1]; 3 mg/kg) | Procognitive effect in object recognition task (Male Wistar rats [2]) | AUC(0-t) ([3]; intravenous (bolus), 1 mg/kg) | clearance ([3]; intravenous (bolus), 1 mg/kg) | half-life ([3]; intravenous (bolus), 1 mg/kg) | bioavailability [3] | AUC(0-t) ([3]; oral (gavage), 3 mg/kg) | Cmax ([3]; oral (gavage), 3 mg/kg) | half-life ([3]; oral (gavage), 3 mg/kg) | EC50 [4] | Kp [5] | Inference (Male Wistar rats [1]; 1 mg/kg) | Exploration time mean ± S.E.M, Familiar object (Male Wistar rats [1]; 1 mg/kg) | Exploration time mean ± S.E.M, Novel object (Male Wistar rats [1]; 1 mg/kg) | Inference (Male Wistar rats [1]; 0.1 mg/kg) | Exploration time mean ± S.E.M, Familiar object (Male Wistar rats [1]; 0.1 mg/kg) | Exploration time mean ± S.E.M, Novel object (Male Wistar rats [1]; 0.1 mg/kg)
O=C(N[C@H]1CCCC[C@@H]1O)c1cc(Cc2ccccc2)c2cccn2n1 [Example 4, N-[(1S,2S)-2-Hydroxycyclohexyl]-4-benzyl-pyrrolo[1,2-b]pyridazine-2-carboxamide] | Active | 16.24 ± 1.09 s | 25.9 ± 2.54 s | Procognitive effects were observed | 677 ± 194 ng·h/mL | 24 ± 6 mL/min/kg | 0.7 ± 0.1 h | 13 ± 1% | 259 ± 22 ng·h/mL | 113 ± 11 ng/mL | 2.5 ± 0.5 h | 1.85 µM | 1.42 ± 0.1 | – | – | – | – | – | –
O=C(NC1CCOCC1)c1cc(Cc2ccc(Cl)cc2)c2cccn2n1 [Example 14, N-[Tetrahydropyran-4-yl]-4-(4-chlorobenzyl)-pyrrolo[1,2-b]pyridazine-2-carboxamide] | Active | 11.28 ± 2.18 s | 23.08 ± 2.96 s | – | 569 ± 74 ng·h/mL | 27 ± 1 mL/min/kg | 5.7 ± 0.7 h | 31 ± 6% | 532 ± 102 ng·h/mL | 68 ± 22 ng/mL | 7.9 ± 1.3 h | 0.976 µM | 3.26 ± 0.02 | – | – | – | – | – | –
Cn1cc(-c2ccc(Cc3cc(C(=O)NCC(C)(C)O)nn4cccc34)cc2)cn1 [Example 19, N-[2-hydroxy-2-methyl-propyl] 4-[4-(1-methyl-1H-pyrazol-4-yl)-benzyl]-pyrrolo[1,2-b]pyridazine-2-carboxamide] | – | – | – | – | 983 ± 91 ng·h/mL | 17 ± 1.6 mL/min/kg | 0.5 h | 66 ± 18% | 1940 ± 520 ng·h/mL | 933 ± 260 ng/mL | 1 ± 0.1 h | 0.336 µM | 0.26 ± 0.02 | – | – | – | – | – | –
Cn1cc(-c2ccc(Cc3cc(C(=O)NCC4(O)CCCCC4)nn4cccc34)cc2)cn1 [Example 24, N-[l-Hydroxy-cyclohexylmethyl] 4-[4-(1-methyl-1H-pyrazol-4-yl)-benzyl]-pyrrolo[1,2-b]pyridazine-2-carboxamide] | – | – | – | – | 359 ± 58 ng·h/mL | 47 ± 8 mL/min/kg | 1.6 ± 0.3 h | 5 ± 1% | 52 ± 8 ng·h/mL | 16 ± 4 ng/mL | 1.9 ± 1.1 h | 0.531 µM | 0.38 | – | – | – | – | – | –
CC(C)(O)CNC(=O)c1cc(Cc2ccc(-c3cccnc3)cc2)c2cccn2n1 [Example 29, N-[2-Hydroxy-2-methyl-propyl] 4-[4-(3-pyridyl)-benzyl]-pyrrolo[1,2-b]pyridazine-2-carboxamide] | – | – | – | – | 2280 ± 161 ng·h/mL | 7.2 ± 0.5 mL/min/kg | 1.5 ± 0.1 h | 88 ± 4% | 6030 ± 279 ng·h/mL | 1810 ± 327 ng/mL | 2.2 ± 0.6 h | 1.17 µM | 0.31 ± 0.04 | Active | 12.17 ± 1.26 s | 22.26 ± 1.05 s | – | – | –
O=C(NC1CCOCC1)c1cc(Cc2ccc(-c3ccncc3)cc2)c2cccn2n1 [Example 31, N-[Tetrahydropyran-4-yl] 4-[4-(4-pyridyl)-benzyl]-pyrrolo[1,2-b]pyridazine-2-carboxamide] | – | – | – | – | 576 ± 192 ng·h/mL | 30.3 ± 8.9 mL/min/kg | 1.5 ± 0.4 h | 114 ± 20% | 1960 ± 360 ng·h/mL | 363 ± 40 ng/mL | 2.8 ± 0.1 h | 1.55 µM | 1.41 ± 0.19 | – | – | – | Active | 14.19 ± 1.02 s | 20.18 ± 1.21 s
